The values that follow come from patent publication US11701359B2, “Exon 18 and/or exon 21 mutant EGFR selective inhibitor” (priority 2017, dated 2023).

Like-named read-outs stand apart in the source and are kept apart here.

One data set has as its target T1, human EGFR G719A (Homo sapiens, UniProt P00533, G719A).
T1 construct: expressed in transfected cells; host or cells: Jump-In Grip HEK293 cells (Thermo Fisher Scientific), pJTI R4 DEST CMV pA vector
Nature of the data set: Intracellular EGFR phosphorylation in mutant EGFR forced expression system using HEK293 cells. It counts as cell-based. The settings on record: HEK293 cells expressing human EGFR G719A, 6 hours; read-out: IC50, phosphorylated EGFR inhibition, G719A.

A further data set concerns the target T2, human EGFR G719S (Homo sapiens, UniProt P00533, G719S).
T2 construct: expressed in transfected cells; host or cells: Jump-In Grip HEK293 cells (Thermo Fisher Scientific), pJTI R4 DEST CMV pA vector
The data set is described as above. The settings on record: HEK293 cells expressing human EGFR G719S, 6 hours; read-out: IC50, phosphorylated EGFR inhibition, G719S. It counts as cell-based.

Another data set has as its target T3, human EGFR G719C (Homo sapiens, UniProt P00533, G719C).
T3 construct: expressed in transfected cells; host or cells: Jump-In Grip HEK293 cells (Thermo Fisher Scientific), pJTI R4 DEST CMV pA vector
The description is as above. It counts as cell-based. The settings on record: HEK293 cells expressing human EGFR G719C, 6 hours; read-out: IC50, phosphorylated EGFR inhibition, G719C.

The target of the next data set is T4, human EGFR E709K (Homo sapiens, UniProt P00533, E709K).
T4 construct: expressed in transfected cells; host or cells: Jump-In Grip HEK293 cells (Thermo Fisher Scientific), pJTI R4 DEST CMV pA vector
T4 sequence (P00533 25-1210 E709K): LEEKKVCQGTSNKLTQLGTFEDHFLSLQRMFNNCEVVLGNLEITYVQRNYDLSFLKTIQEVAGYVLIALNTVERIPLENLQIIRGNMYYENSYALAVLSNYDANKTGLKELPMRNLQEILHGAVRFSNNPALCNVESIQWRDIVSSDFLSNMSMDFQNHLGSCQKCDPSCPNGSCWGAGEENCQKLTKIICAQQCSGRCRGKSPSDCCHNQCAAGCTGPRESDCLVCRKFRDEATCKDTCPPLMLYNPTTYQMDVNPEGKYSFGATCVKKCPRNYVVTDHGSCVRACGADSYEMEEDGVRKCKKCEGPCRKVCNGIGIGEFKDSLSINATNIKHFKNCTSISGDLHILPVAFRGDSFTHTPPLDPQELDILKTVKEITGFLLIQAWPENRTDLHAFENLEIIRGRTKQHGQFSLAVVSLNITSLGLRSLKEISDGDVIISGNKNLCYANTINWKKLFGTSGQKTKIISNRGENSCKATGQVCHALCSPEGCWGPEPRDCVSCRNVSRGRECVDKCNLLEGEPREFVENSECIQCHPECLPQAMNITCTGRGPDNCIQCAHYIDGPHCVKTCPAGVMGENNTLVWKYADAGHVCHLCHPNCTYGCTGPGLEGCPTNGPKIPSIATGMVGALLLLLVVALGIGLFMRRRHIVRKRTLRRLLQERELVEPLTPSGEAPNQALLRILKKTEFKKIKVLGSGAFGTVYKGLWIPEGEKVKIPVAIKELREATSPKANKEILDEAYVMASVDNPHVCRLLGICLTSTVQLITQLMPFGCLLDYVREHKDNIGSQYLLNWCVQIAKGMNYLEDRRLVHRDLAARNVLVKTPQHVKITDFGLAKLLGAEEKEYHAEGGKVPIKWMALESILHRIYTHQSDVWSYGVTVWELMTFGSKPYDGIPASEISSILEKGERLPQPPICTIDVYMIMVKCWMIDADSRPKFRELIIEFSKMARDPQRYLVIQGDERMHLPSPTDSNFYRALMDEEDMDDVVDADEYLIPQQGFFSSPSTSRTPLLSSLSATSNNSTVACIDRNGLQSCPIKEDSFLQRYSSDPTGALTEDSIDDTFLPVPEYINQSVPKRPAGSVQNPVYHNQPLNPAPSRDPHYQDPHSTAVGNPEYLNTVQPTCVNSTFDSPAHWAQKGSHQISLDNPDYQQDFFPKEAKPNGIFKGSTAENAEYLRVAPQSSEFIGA
Described as above. It counts as cell-based. The settings on record: HEK293 cells expressing human EGFR E709K, 6 hours; read-out: IC50, phosphorylated EGFR inhibition, E709K.

Another data set deals with T5, human EGFR E709A (Homo sapiens, UniProt P00533, E709A).
T5 construct: expressed in transfected cells; host or cells: Jump-In Grip HEK293 cells (Thermo Fisher Scientific), pJTI R4 DEST CMV pA vector
Described as above. It counts as cell-based. The settings on record: HEK293 cells expressing human EGFR E709A, 6 hours; read-out: IC50, phosphorylated EGFR inhibition, E709A.

The target in another data set is T6, human EGFR L861Q (Homo sapiens, UniProt P00533, L861Q).
T6 construct: expressed in transfected cells; host or cells: Jump-In Grip HEK293 cells (Thermo Fisher Scientific), pJTI R4 DEST CMV pA vector
The data set is described as above. The settings on record: HEK293 cells expressing human EGFR L861Q, 6 hours; read-out: IC50, phosphorylated EGFR inhibition, L861Q. It counts as cell-based.

The target in another data set is T7, human EGFR G719A+T790M (Homo sapiens, UniProt P00533, G719A/T790M).
T7 construct: expressed in transfected cells; host or cells: Jump-In Grip HEK293 cells (Thermo Fisher Scientific), pJTI R4 DEST CMV pA vector
The data set is described as above. It counts as cell-based. The settings on record: HEK293 cells expressing human EGFR G719A+T790M, 6 hours; read-out: IC50, phosphorylated EGFR inhibition, G719A + T790M.

The target in a further data set is T8, human EGFR L861Q+T790M (Homo sapiens, UniProt P00533, L861Q/T790M).
T8 construct: expressed in transfected cells; host or cells: Jump-In Grip HEK293 cells (Thermo Fisher Scientific), pJTI R4 DEST CMV pA vector
T8 sequence (P00533 25-1210 T790M/L861Q): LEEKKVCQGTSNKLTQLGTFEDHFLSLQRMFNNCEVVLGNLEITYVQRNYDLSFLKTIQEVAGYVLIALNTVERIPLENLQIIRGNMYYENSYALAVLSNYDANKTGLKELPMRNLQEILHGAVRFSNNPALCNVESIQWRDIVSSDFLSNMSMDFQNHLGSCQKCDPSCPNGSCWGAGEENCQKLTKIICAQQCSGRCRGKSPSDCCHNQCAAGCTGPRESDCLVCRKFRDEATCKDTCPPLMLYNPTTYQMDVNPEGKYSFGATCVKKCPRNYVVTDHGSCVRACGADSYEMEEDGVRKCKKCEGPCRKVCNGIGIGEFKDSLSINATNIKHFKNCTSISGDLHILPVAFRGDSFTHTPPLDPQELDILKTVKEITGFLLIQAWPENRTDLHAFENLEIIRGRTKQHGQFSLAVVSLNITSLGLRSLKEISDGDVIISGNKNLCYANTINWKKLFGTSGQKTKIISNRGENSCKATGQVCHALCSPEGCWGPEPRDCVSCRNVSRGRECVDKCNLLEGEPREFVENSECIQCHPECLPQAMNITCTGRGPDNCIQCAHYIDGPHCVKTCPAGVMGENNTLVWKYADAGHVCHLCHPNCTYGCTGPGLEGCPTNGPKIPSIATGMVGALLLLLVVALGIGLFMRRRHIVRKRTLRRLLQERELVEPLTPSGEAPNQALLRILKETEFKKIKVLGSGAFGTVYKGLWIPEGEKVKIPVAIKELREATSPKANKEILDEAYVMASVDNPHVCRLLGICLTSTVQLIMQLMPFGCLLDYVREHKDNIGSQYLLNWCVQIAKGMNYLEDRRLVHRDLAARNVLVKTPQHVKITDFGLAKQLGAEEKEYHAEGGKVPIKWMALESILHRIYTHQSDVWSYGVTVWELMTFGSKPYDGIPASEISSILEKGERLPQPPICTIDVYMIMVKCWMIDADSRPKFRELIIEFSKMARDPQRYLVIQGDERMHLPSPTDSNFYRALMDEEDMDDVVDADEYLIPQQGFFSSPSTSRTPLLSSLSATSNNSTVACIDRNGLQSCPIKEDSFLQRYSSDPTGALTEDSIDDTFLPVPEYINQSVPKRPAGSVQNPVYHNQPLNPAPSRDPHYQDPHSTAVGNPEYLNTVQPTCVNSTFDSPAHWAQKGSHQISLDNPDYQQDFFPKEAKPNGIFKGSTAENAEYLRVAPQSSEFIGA
The description is as above. It counts as cell-based. Particulars: HEK293 cells expressing human EGFR L861Q+T790M, 6 hours; read-out: IC50, phosphorylated EGFR inhibition, L861Q + T790M.

The next data set has as its system Ba/F3-EGFR_WT cells. Nature of the data set: Cell growth inhibitory effect, wild-type EGFR-expressing Ba/F3 cell line (CellTiter-Glo). It counts as cell-based. The settings on record: Mus musculus, BaF3, 72 h, read-out: IC50 (nM) WT. In general terms: ATP-based viability assays read luminescence as a measure of living cells.
Another data set has as its system Ba/F3-EGFR G719A cells. Nature of the data set: Cell growth inhibitory effect, G719A mutant EGFR-expressing Ba/F3 cell line (CellTiter-Glo). It counts as cell-based, mouse. Particulars: for IC50: Mus musculus, 72 h, read-out: IC50 (nM) G719A.
In another data set the test system is Ba/F3-EGFR L861Q cells. The data set can be described thus: Cell growth inhibitory effect, L861Q mutant EGFR-expressing Ba/F3 cell line (CellTiter-Glo). It counts as cell-based, mouse. Particulars: for IC50: Mus musculus, 72 h, read-out: IC50 (nM) L861Q.
The test system of data set [1] is Ba/F3-EGFR G719A+T790M cells. Nature of the data set: Cell growth inhibitory effect, G719A+T790M mutant EGFR-expressing Ba/F3 cell line (CellTiter-Glo). The settings on record: for IC50: Mus musculus, 72 h, read-out: IC50 (nM) G719A + T790M. It counts as cell-based, mouse.
Data set [2] concerns Ba/F3-EGFR L861Q+T790M cells. Nature of the data set: Cell growth inhibitory effect, L861Q+T790M mutant EGFR-expressing Ba/F3 cell line (CellTiter-Glo). It counts as cell-based, mouse. Particulars: for IC50: Mus musculus, 72 h, read-out: IC50 (nM) L861Q + T790M.
The next data set can be described thus: in vivo. The settings on record: mouse, in vivo; nude mice, oral once daily, 14 days, G719A+T790M model; read-out: Maximum tolerated dose (weight loss during dosing period less than 20%).
In data set [3] the test system is NIH3T3-EGFR G719A+T790M cells. The data set can be described thus: in vivo. Particulars: nude mice; for T/C (%): final evaluation day.
The nature of data set [4]: Antitumor effect on mouse model subcutaneously transplanted with G719A mutant EGFR-expressing cell line. The settings on record: nude, mouse, in vivo, po.
Another data set has as its system NIH3T3-EGFR G719A cells. The description is as above. Particulars: nude mice.

T3 sequence (P00533 25-1210 G719C): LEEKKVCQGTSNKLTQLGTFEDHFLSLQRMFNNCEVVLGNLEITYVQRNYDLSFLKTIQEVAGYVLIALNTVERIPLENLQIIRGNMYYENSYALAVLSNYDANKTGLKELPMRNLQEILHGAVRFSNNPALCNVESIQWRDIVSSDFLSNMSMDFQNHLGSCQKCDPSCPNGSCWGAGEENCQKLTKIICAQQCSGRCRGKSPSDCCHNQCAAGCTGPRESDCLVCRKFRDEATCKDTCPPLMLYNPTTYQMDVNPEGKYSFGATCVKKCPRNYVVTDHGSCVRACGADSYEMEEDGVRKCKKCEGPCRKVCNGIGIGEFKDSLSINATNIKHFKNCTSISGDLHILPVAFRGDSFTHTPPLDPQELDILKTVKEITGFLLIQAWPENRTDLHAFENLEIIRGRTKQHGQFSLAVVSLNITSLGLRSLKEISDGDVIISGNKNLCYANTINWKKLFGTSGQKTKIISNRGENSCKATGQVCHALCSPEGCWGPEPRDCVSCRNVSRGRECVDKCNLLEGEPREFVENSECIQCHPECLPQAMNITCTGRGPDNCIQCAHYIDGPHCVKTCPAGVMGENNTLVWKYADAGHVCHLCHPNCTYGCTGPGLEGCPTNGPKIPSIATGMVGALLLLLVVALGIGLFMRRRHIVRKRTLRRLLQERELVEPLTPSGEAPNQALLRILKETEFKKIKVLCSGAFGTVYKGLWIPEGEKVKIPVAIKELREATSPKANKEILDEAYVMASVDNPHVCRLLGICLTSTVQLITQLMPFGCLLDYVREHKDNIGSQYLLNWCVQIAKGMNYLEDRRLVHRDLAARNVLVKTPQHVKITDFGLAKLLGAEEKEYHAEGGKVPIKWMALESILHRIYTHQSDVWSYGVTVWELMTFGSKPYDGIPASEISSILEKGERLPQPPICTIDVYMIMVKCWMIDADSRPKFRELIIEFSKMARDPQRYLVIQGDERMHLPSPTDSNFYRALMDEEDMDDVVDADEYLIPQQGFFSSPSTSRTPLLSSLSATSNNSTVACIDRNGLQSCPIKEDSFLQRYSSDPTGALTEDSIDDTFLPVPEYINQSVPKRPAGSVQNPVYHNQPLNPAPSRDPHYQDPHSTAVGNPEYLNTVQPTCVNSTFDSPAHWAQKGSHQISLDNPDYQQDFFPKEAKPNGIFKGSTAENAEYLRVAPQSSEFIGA
T2 sequence (P00533 25-1210 G719S): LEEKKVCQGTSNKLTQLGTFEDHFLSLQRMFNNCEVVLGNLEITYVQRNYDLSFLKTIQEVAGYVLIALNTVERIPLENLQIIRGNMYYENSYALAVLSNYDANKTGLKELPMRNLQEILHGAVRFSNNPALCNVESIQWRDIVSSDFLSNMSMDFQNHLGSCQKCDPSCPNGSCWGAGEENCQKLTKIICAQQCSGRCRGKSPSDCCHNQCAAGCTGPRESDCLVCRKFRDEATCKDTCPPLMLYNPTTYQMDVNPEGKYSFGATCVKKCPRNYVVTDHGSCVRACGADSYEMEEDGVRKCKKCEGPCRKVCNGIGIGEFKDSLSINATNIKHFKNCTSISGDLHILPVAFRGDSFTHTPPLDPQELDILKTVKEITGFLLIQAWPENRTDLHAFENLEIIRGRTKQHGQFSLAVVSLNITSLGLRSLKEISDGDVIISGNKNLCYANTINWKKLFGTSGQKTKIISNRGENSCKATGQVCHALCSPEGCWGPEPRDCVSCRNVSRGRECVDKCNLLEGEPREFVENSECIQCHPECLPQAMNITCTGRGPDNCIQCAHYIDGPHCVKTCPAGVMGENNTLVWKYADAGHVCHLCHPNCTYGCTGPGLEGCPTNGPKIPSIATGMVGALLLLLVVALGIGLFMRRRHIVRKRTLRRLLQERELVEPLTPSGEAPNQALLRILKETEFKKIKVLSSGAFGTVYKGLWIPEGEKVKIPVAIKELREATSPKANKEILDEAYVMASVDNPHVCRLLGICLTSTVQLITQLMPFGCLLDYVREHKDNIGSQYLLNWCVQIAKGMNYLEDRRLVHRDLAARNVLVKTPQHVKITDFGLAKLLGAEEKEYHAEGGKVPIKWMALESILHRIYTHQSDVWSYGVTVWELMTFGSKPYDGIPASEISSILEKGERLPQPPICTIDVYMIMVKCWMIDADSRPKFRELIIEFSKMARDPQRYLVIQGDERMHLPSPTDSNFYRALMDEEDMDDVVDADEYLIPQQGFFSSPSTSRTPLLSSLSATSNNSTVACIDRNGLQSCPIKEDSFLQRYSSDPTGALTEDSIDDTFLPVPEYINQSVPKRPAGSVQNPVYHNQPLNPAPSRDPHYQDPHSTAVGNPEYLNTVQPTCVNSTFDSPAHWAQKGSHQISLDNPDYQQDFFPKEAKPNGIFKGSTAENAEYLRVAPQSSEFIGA

Turning to `C=CC(=O)N[C@H]1C=C(C)c2c(-c3cnc4ccccc4c3)c3c(N)ncnc3n2C1` [Compound A, (S)-N-(4-amino-6-methyl-5-(quinolin-3-yl)-8,9-dihydropyrimido[5,4-b]indolizin-8-yl)acrylamide], the IC50 – broadly, the concentration that gives 50% inhibition – is 20.5 µM at human EGFR G719A; 22.7 µM on human EGFR G719S; 9.3 µM on human EGFR G719C; 86 µM at human EGFR E709K; 103 µM at human EGFR E709A; 40.5 µM at human EGFR L861Q. The half-inhibitory concentration (IC50) on human EGFR G719A+T790M amounted to 31.3 µM; on human EGFR L861Q+T790M, 81.8 µM; with Ba/F3-EGFR_WT cells (Ba/F3 cells with human wild-type EGFR, 50 ng/mL EGF, 3 days), 597 nM; in the data set with Ba/F3-EGFR G719A cells (Ba/F3 cells with human EGFR G719A, no EGF, 3 days), 9 nM; with Ba/F3-EGFR L861Q cells (Ba/F3 cells with human EGFR L861Q, no EGF, 3 days), 19 nM; in [1] (Ba/F3 cells with human EGFR G719A+T790M, no EGF, 3 days), 15.8 nM. Besides, the 50% inhibitory concentration (IC50) in data set [2] (Ba/F3 cells with human EGFR L861Q+T790M, no EGF, 3 days) came to 37.5 nM. Moreover, the “IC50 Ratio WT/G719A” value in the data set with Ba/F3-EGFR G719A cells (IC50 (WT)/IC50 (G719A), Ba/F3 cells) is recorded as 66.4. Moreover, the “IC50 Ratio WT/L861Q” value in the data set on Ba/F3-EGFR L861Q cells (IC50 (WT)/IC50 (L861Q), Ba/F3 cells) was 31.4. Also, the “IC50 Ratio WT/G719A + T790M” value in [1] (IC50 (WT)/IC50 (G719A+T790M), Ba/F3 cells) turned out to be 37.9. Further, in data set [2] (IC50 (WT)/IC50 (L861Q+T790M), Ba/F3 cells), the “IC50 Ratio WT/L861Q + T790M” value was determined as 15.9. Besides, the MTD at 14 days (in “in vivo”; in [4]) was 200 mg/kg/day in each case. The “T/C (%)” value in data set [3] (50 mg/kg, oral once daily) is 47.7%; in [3] (100 mg/kg, oral once daily), 36.4%; in [3] (200 mg/kg, oral once daily), 28.0%. The “Symptoms (weight loss, abnormal feces, abnormal skin)” value in data set [3] (NIH3T3-EGFR G719A+T790M model, oral once daily, FIG. 4) was “without symptoms such as serious weight loss”; in the data set with NIH3T3-EGFR G719A cells (NIH3T3-EGFR G719A model, oral once daily 14 days, FIG. 2), “did not show symptoms”. Also, the “Antitumor effect (tumor volume)” value in [3] (NIH3T3-EGFR G719A+T790M subcutaneous, oral once daily, 50, 100, 200 mg/kg/day, FIG. 3) was “significant antitumor effect”; with NIH3T3-EGFR G719A cells (NIH3T3-EGFR G719A subcutaneous, oral once daily 14 days, 50, 100, 200 mg/kg/day, FIG. 1), “remarkable antitumor effect”.

With `C=CC(=O)Nc1cc(Nc2nccc(-c3cn(C)c4ccccc34)n2)c(OC)cc1N(C)CCN(C)C` [Osimertinib, osimertinib, reference compound], the IC50 in the data set on Ba/F3-EGFR_WT cells was determined as 379 nM; in the data set with Ba/F3-EGFR G719A cells (Ba/F3 EGFR) it was 209 nM; in the data set with Ba/F3-EGFR L861Q cells (Ba/F3 EGFR) it was 47 nM; in [1] (Ba/F3 EGFR) it was 89.4 nM; in data set [2] (Ba/F3 EGFR), 36.4 nM.
